Laboratory results as given in PMC11031590, “Narazaciclib, a novel multi-kinase inhibitor with potent activity against CSF1R, FLT3 and CDK6, shows strong anti-AML activity in defined preclinical models” (Scientific Reports, 2024).

Assays:
SIK1 = SIK1 (Homo sapiens, UniProt P57059); assay: Additional kinase inhibition panel; assay type: biochemical
Excerpt: (§1) Supplement 41598_2024_59650_MOESM2_ESM.docx, table 4: Supplemental Table S4. IC50 of Narazaciclib against additional kinases | column: Narazaciclib (µM); Narazaciclib metabolite (µM)

C-Kit = C-Kit (Homo sapiens, UniProt P10721); assay: Additional kinase inhibition panel; assay type: biochemical
Chain of C-Kit (P10721 26-976): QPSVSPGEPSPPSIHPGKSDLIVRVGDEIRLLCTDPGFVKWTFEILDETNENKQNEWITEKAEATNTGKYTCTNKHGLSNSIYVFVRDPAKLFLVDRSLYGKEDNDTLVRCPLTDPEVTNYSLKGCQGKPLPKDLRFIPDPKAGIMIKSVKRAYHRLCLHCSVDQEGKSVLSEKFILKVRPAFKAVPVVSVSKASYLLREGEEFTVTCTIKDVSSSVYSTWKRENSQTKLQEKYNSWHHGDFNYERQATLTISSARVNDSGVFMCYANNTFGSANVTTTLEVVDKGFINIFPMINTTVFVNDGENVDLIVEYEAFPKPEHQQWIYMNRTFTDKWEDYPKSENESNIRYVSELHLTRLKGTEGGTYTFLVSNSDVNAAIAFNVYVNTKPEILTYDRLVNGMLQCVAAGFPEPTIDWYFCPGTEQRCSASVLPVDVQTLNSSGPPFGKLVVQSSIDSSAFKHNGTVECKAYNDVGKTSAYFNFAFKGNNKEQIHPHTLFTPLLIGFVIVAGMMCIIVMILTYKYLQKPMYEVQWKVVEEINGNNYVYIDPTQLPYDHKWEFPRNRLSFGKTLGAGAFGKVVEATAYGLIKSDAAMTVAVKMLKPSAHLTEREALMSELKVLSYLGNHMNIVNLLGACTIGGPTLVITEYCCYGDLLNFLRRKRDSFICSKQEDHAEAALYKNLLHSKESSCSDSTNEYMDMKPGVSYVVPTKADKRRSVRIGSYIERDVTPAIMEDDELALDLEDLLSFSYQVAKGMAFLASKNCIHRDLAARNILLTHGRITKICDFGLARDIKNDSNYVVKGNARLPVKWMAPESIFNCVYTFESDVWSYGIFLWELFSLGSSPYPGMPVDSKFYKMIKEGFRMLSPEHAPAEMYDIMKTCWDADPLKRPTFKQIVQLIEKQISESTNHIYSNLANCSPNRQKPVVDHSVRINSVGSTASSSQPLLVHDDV
Excerpt: as §1

SIK3 = SIK3 (Homo sapiens, UniProt Q9Y2K2); assay: Additional kinase inhibition panel; assay type: biochemical
Chain of SIK3 (Q9Y2K2 whole entry): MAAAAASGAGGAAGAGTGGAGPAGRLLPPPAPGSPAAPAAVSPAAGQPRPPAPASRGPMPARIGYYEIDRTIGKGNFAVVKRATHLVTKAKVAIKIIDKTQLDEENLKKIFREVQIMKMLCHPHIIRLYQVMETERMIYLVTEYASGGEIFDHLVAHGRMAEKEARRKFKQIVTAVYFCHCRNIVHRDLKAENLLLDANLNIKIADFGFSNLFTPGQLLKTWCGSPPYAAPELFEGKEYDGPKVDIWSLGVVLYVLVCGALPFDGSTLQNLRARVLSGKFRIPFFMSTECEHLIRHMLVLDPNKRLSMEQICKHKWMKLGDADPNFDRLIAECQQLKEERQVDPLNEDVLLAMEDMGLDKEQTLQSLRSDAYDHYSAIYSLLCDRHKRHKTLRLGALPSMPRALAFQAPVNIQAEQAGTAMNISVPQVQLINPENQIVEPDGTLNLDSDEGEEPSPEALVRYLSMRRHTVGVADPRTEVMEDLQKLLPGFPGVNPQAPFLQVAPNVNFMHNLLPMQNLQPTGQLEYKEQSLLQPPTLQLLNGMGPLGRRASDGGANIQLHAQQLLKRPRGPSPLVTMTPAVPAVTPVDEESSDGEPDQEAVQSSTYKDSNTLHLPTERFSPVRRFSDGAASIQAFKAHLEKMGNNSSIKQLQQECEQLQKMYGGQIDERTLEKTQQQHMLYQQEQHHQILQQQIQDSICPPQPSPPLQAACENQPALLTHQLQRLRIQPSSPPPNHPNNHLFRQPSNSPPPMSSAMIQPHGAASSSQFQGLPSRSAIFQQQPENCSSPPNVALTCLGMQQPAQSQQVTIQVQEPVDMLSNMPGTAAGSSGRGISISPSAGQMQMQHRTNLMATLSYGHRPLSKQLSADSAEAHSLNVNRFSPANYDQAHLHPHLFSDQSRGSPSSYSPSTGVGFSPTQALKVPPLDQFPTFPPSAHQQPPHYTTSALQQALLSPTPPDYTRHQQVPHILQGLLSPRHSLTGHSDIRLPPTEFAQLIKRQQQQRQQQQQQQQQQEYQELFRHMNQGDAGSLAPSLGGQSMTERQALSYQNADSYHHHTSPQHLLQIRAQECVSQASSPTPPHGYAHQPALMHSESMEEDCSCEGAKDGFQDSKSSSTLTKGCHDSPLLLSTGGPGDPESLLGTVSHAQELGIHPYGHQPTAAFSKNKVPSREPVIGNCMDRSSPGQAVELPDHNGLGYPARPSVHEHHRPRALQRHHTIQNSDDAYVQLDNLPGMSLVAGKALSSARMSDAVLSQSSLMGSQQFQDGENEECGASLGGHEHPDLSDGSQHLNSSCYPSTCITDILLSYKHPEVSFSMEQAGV
Excerpt: as §1

PDGFRα = PDGFRα (Homo sapiens, UniProt P16234); assay: Additional kinase inhibition panel; assay type: biochemical
Chain of PDGFRα (P16234 24-1089): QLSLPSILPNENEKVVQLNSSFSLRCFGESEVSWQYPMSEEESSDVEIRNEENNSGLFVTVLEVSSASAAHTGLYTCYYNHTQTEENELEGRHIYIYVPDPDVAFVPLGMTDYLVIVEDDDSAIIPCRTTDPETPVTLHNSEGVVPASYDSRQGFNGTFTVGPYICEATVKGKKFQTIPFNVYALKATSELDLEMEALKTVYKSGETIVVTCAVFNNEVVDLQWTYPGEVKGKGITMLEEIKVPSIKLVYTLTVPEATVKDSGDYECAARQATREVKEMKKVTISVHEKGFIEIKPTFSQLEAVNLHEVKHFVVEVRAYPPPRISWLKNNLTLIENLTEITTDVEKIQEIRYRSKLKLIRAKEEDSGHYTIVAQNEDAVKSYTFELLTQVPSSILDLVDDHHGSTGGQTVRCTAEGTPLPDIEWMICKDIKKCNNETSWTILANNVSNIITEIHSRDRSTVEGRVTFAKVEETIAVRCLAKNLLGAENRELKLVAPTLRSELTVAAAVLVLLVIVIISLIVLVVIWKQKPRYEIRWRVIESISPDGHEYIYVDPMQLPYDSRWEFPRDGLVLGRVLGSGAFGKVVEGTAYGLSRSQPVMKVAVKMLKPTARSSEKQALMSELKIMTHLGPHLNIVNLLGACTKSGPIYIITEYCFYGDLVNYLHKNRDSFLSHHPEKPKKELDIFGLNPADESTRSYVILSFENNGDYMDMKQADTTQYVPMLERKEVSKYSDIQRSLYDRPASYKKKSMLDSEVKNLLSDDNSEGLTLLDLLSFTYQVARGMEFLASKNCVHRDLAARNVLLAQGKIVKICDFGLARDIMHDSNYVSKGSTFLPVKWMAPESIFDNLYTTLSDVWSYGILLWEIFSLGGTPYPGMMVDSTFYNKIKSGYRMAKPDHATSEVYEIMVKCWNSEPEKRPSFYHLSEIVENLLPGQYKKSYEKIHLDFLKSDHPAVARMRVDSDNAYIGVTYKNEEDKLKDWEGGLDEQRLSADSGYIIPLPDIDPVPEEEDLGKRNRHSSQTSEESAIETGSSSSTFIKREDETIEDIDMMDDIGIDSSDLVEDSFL
Excerpt: as §1

FGFR1 = FGFR1 (Homo sapiens, UniProt P11362); assay: Additional kinase inhibition panel; assay type: biochemical
Chain of FGFR1 (P11362 22-822): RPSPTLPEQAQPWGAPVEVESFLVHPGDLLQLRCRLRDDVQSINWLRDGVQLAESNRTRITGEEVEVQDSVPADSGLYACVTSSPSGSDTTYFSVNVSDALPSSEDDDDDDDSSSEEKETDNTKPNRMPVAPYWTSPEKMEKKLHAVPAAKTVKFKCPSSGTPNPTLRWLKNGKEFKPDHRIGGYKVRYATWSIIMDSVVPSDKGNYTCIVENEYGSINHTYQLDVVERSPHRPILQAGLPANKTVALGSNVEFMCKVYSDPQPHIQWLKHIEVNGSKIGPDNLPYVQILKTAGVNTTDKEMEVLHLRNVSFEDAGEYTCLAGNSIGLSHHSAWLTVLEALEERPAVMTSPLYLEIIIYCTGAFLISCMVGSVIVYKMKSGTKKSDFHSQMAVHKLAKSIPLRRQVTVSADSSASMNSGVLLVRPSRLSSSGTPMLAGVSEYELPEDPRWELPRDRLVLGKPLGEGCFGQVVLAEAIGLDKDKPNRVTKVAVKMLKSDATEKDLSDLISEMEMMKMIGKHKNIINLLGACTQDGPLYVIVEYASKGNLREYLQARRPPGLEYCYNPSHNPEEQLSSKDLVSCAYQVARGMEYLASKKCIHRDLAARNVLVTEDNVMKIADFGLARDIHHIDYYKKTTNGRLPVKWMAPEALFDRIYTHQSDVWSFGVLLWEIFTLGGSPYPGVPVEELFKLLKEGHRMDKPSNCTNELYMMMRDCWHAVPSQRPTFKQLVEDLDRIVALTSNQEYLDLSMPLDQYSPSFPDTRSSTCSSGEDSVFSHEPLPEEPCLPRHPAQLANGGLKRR
Excerpt: as §1

[1] = test system: MV-4-11 subcutaneous xenograft; assay: MV-4-11 subcutaneous xenograft model; assay type: in vivo, NOD/scid mice; settings: narazaciclib 100 mg/kg intraperitoneally twice per week for 3 weeks
Excerpt: The subcutaneous cell line xenograft (CDX) models and systemic patient-derived xenograft (PDX) models of AML have been extensively described before. For the subcutaneous MV-4-11 CDX model, 5 × 10^6 MV-4-11 tumor cells harvested from exponential growth phase were mixed with Matrigel (1:1) and then inoculated into the right front flank region of 6- to 7-week-old female NOD/scid mice for tumor development. MV-4-11 tumor-bearing mice were randomized into 5 groups (N = 8) when their tumor volume reached approximately 100 mm^3 and received their designated treatments following randomization. Narazaciclib was administrated intraperitoneally at 100 mg/kg twice per week for 3 weeks, while Azacitidine was administrated intraperitoneally at 3 mg/kg twice per week for 3 weeks. For the subcutaneous Ba/F3-ETV6-CSF1R CDX model, 1 × 10^6 Ba/F3-ETV6-CSF1R tumor cells harvested from exponential growth phase were mixed with Matrigel (1:1) and then inoculated into the right front flank region of 6- to 8-week-old female NOD/scid mice for tumor development. Ba/F3-ETV6-CSF1R tumor-bearing mice were randomized into 5 groups (N = 6) when their tumor volume reached approximately 100 mm^3 and received their designated treatments following randomization. […] Tumor volume and body weight were measured at different time points and tumor growth inhibition (TGI) was used as index to determine the therapeutic efficacy.

Chain of SIK1 (P57059 whole entry): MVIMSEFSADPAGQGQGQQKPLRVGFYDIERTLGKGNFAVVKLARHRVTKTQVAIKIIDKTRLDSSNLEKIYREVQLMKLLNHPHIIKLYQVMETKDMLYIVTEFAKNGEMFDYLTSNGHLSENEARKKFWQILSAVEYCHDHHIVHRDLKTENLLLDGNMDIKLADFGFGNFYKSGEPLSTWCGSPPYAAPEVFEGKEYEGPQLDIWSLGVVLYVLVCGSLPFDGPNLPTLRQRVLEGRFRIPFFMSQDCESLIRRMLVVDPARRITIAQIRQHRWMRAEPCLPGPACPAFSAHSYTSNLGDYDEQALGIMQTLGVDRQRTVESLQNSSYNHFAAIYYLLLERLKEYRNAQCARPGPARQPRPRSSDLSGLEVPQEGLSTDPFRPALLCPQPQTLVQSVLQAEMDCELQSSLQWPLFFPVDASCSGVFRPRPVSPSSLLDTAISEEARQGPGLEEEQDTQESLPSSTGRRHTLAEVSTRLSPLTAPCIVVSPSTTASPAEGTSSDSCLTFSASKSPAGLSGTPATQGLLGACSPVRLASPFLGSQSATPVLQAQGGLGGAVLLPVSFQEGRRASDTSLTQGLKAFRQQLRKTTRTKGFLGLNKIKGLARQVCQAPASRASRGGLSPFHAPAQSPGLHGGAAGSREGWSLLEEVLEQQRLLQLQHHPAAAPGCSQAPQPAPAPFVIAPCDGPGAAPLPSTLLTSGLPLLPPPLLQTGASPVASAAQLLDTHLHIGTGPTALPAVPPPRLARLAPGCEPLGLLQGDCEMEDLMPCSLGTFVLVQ

CN1CCN(c2ccc(Nc3ncc4cc(C#N)c(=O)n(C5CCCC5)c4n3)cc2)CC1 [Narazaciclib, narazaciclib]
IC50 (SIK1): 34 nM
IC50 (C-Kit): 9 nM
IC50 (SIK3): 24 nM
IC50 (PDGFRα): 104 nM
IC50 (FGFR1): 38 nM
anti-AML activity (tumor growth) [1]: significant anti-AML activity
